Experimental data published in paper PMC9569447 (International Journal of Molecular Sciences, 2022).
Where “and” joins values, the source holds several entries; their conditions need not be identical. Equal values may be shown once. Read-outs that look alike come from different tables or passages of the source. Marks after values point to notes of the source that are not given here. Numbered stars: 1 amine (or outer) side, 2 acyl side, 3 side chain; on linkers, the order of the positions; unused ones are H or OH. Bridge positions count the residues as written; N and C are the ends. Square brackets hold non-standard residues; d marks the D form. Side chains are listed from the residue outwards. Peptide text beside a SMILES is read from it. * marks the point of attachment. PEG8 = NCCOCCOCCOCCOCCOCCOCCOCCOCCC(=O)O; Palmitoyl = CCCCCCCCCCCCCCCC(=O)*; hCys = N[C@@H](CCS)C(=O)O; X1 = O=C(CC[*:2])[*:1]

Columns and labels:
[1] = target: T1, hOXTR (Homo sapiens, UniProt P30559); assay: In vitro functional assay at the OXT receptor (Ca2+ flux, fluorometric imaging plate reader); assay type: cell-based; details: ratio of EC50 values hOXTR/hV2R
T1 construct: expressed in transfected cells
T1 sequence (P30559 1-389): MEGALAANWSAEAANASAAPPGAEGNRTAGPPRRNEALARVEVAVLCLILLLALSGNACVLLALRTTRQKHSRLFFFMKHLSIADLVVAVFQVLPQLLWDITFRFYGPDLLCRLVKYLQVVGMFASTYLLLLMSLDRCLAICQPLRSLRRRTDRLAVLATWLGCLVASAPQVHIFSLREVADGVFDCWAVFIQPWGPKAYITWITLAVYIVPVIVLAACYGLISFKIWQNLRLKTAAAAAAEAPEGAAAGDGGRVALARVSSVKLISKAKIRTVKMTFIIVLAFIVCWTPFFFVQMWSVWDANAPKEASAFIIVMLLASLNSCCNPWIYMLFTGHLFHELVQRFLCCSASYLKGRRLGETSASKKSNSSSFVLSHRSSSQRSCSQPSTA
Experimental: In a typical experimental protocol, stably transfected Chinese hamster ovary (CHO) hOTR NFAT bLac cells were plated at a density of 10,000 cells/well in a 384-well plate in growth medium (Dulbecco’s modified Eagle’s medium + Glutamax (Thermo Fisher Scientific, Waltham, MA, USA), 10% dialyzed fetal bovine serum). The next day calcium-sensitive, fluo-4 dye (Invitrogen, Carlsbad, CA, USA) and probenecid (Invitrogen; 2.5 mM) was dissolved in 20 mL warm dye loading buffer (Hanks’ balanced salt solution with calcium and magnesium, 20 mM Hepes, pH 7.4) and added to each well. Plates were incubated for 60–120 min in a 37 °C cell incubator to allow cells to uptake the dye. […] After dye-loading, the cell plates were placed on the fluorometric imaging plate reader. A total of […] of test compound was added to the […] of dye on the cells, and intracellular Ca^2+ was monitored for 90 s. Intracellular Ca^2+ concentrations were calculated as the maximum increase over basal levels. Responses were normalized to control responses. Data were analyzed by curve fitting.

[2] = tested on: diet-induced obese (DIO) Sprague Dawley rats; assay: Dose escalation study: body weight, food and water intake; assay type: in vivo, rat
Description: Male DIO Sprague Dawley rats (n = 4) were fed 60% HF diet (formula: D12492; Research Diets, Inc., New Brunswick, NJ, USA; 5.21 kcal/g) for 16 weeks prior to the start of the study. Rats were changed to being singly housed and allowed to acclimate for at least one week prior to the start of this study. Animals averaged 844.15 ± 99.95 g at baseline. Baseline measures of body weight, food intake, and water intake were taken for 6 days before drug administration began. Doses for the dose escalation study included 1, 2, 5, 10, 20, 50, and 100 nmol/kg. Body weight, food and water intake were assessed just prior to the start of the dark cycle.

[3] = tested on: diet-induced obese (DIO) Sprague Dawley rats; assay type: in vivo
Description: Male Sprague Dawley rats were fed 60% HF diet (formula: D12492; Research Diets, Inc; New Brunswick, NJ, USA; 5.21 kcal/g) for 16 weeks prior to the start of the study. Rats were then singly housed in BioDAQ cages (Research Diets, Inc.; New Brunswick, NJ, USA) and allowed to acclimate to their new environment for 10 days. Baseline measures of body weight, food intake and water intake were taken for one week to balance the groups and create feeding pairs. Each group (n = 6 animals/group) averaged 714.47 ± 81.60 g at baseline (Table 3).
Effects of ASK2131 were compared to a vehicle-treated group, OXT-treated group, as well as a pair-fed control group. Three days of baseline measures were taken before subcutaneous treatment administration began on day 4 of the study. Assessments were made to body weight, food intake and water intake. ASK2131 was administered at 50 nmol/kg throughout the entire study period. […] OXT-treated animals were started at 50 nmol/kg dose for two days, followed by 150 nmol/kg, then 300 nmol/kg, until ending at 600 nmol/kg for the remainder of the study.

[4] = Pharmacokinetics after subcutaneous administration to rats; details: sc, 300 nmol/kg
Experimental: (§1) Whole blood samples were immediately centrifuged at 4 °C; separated plasma (~100 uL) was pipetted into micro centrifuge tubes, flash frozen on dry ice, and stored at −80 °C. Quantitative analysis plasma samples were performed by Alturas Analytics (Moscow, ID, USA) via peptide extraction from acidified plasma with acetonitrile followed by LC-MS/MS analysis.

[5] = tested on: diet-induced obese (DIO) Sprague Dawley rats; assay: Post-treatment serum levels after the 22-day treatment; assay type: in vivo, rat
Experimental: Cardiac puncture was used to collect blood for analysis 2 h post final injection. Commercially available enzyme-linked immunosorbent assays (ELISA) were used for quantitative assessment of leptin (cat. # EZRL-83K; MilliporeSigma, Burlington, MA, USA), insulin (cat. # EZRMI-13K; MilliporeSigma, Burlington, MA, USA), and adiponectin (cat. # EZRAPD-62K MilliporeSigma, Burlington, MA, USA). Serum samples were diluted 1:500 for the adiponectin ELISA using the sample diluent provided with the kit. All ELISAs were completed following the manufacturers recommendations. Levels of glucose, cholesterol (total, HDL, and calculated LDL), triglycerides, ALT, and AST were determined in the serum on a Modular P chemistry analyzer (Roche Diagnostics, Risch-Rotkreuz, Switzerland) by the University of Washington Nutrition and Obesity Research Center’s Analytic Core (Seattle, WA, USA).

[6] = in vivo; details: male, Sprague Dawley, rat, sc
Experimental: as §1

[7] = male, Sprague Dawley, rat, plasma
[8] = serum ELISA, after 22 days, mean ± SEM, n = 6 (Oxytocin n = 4)
[9] = serum, 2 h post final injection after 22 days, mean ± SEM, n = 6 (Oxytocin n = 4)

Question: Which “Ratio hOXTR/hV2R” value [1] does the source give for `CCCCCCCCCCCCCCCC(=O)NCCOCCOCCOCCOCCOCCOCCOCCOCCC(=O)NCCCC[C@H](NC(=O)CNC(=O)[C@@H]1CCSCCC(=O)N[C@@H](Cc2ccc(O)cc2)C(=O)N[C@@H]([C@@H](C)CC)C(=O)N[C@@H](CCC(N)=O)C(=O)N[C@@H](CC(N)=O)C(=O)N1)C(=O)NCC(N)=O` [ASK2131] (YIQN[hCys]GK([PEG8-Palmitoyl])G-NH2; linker N-5 via X1) here?
Answer: The value was 3.06.

Question: What about the “2-day averaged food intake reduction relative to baseline” value ([2]; DIO rats, at doses < 2 nmol/kg and > 5 nmol/kg) of the same compound?
Answer: The value was 20–25%.

Question: What about the “loss in body weight compared to baseline” value ([2]; DIO rats, once daily sc doses rising every two days from 1 to 100 nmol/kg, average per rat over the treatment period) of the same compound?
Answer: The value was 8.4%.

Question: And the “decrease in body weight compared to baseline” value ([2]; at 2 nmol/kg, after only four treatments)?
Answer: Its value is ~ 4%.

Question: And the adverse response ([2]; one rat with severe diarrhea was terminated and excluded, result in words)?
Answer: The adverse response was “No other animals treated with ASK2131 showed any signs of an adverse response”.

Question: What about the water intake ([2]; with increased dosing of ASK2131, result in words) of the same compound?
Answer: Its water intake is “not significantly different from baseline”.

Question: What about the “decrease in food intake” value ([3]; 50 nmol/kg, first 8 days of treatment) of the same compound?
Answer: The value was 35%.

Question: And the “reduction in food intake” value ([3]; 50 nmol/kg, last 8 days of treatment)?
Answer: The value was 25%.

Question: And the “average decline in food intake” value ([3]; 50 nmol/kg, whole 22-day treatment)?
Answer: Its value is 28%.

Question: What about the “body weight, predicted mean difference (PMD) vs vehicle-treated group” value ([3]; after 2 days of drug administration, 50 nmol/kg sc, 95% CI −6.52 to −1.15%, p = 0.0011) of the same compound?
Answer: The value was −3.83%.

Question: And the “body weight, predicted mean difference (PMD) vs OXT-treated group” value ([3]; after 2 days of drug administration, both 50 nmol/kg sc, 95% CI −6.45 to −1.08%, p = 0.0014)?
Answer: The value was −3.77%.

Question: What about the Posttreatment body weight ([3]; after 22 days once daily sc, ASK2131 50 nmol/kg, OXT titrated 50 to 600 nmol/kg, n = 6, mean ± SEM) of the same compound?
Answer: Its Posttreatment body weight is 676 ± 42 g.

Question: And the “% change in body weight” value ([3]; after 22 days vs baseline, once daily sc, ASK2131 50 nmol/kg, OXT titrated 50 to 600 nmol/kg, n = 6, mean ± SEM)?
Answer: Its value is −6.6 ± 1.3% and −6.6 ± 1.3 ^c,d %.

Question: What about the “body weight reduction compared to baseline” value ([3]; after 22 days, ASK2131 50 nmol/kg sc daily, mean ± standard error) of the same compound?
Answer: Its value is 6.6 ± 1.3%.

Question: And the “body weight change, mean difference (MD) vs vehicle” value ([3]; after 22 days, ASK2131 50 nmol/kg/d, 95% CI −15.6 to −7.4, p < 0.0001)?
Answer: The value was −11.5%.

Question: And the “cumulative food intake, mean difference (MD) vs vehicle” value ([3]; after 22 days, ASK2131 50 nmol/kg/d, 95% CI −1031 to −213.1, p < 0.0008)?
Answer: The value was -621.9 kcal.

Question: What about the “reduction of food intake compared to baseline” value ([3]; day 3, 50 nmol/kg/d sc) of the same compound?
Answer: The value was 39 ± 9%.

Question: What about the “food intake, predicted mean difference (PMD) vs vehicle-treated group” value ([3]; day 3, 50 nmol/kg/d sc, 95% CI −80.47 to −11.51%, p = 0.0102) of the same compound?
Answer: The value was −45.99%.

Question: What about the tolerability ([3]; rat, in vivo) of the same compound?
Answer: The tolerability was “well tolerated”.

Question: What about the water intake ([3]; rat, in vivo) of the same compound?
Answer: Its water intake is “without relevant changes of water intake”.

Question: And the “body weight reduction (weight loss) vs vehicle at end of treatment” value ([3]; study completion, 22 days, ASK2131 50 nmol/kg, OXT titrated up to 600 nmol/kg)?
Answer: Its value is 11.5%.

Question: What about the Cmax [4, 7] of the same compound?
Answer: Its Cmax is 276 nM.

Question: What about the Tmax [4, 7] of the same compound?
Answer: Its Tmax is 4 h.

Question: What about the clearance [4, 7] of the same compound?
Answer: The clearance was 1.2 mL/min/kg.

Question: What about the “Cmax (total maximal plasma concentration)” value ([4]; male lean Sprague Dawley rats, n = 5 per group, LC-MS/MS) of the same compound?
Answer: Its value is 276 nM.

Question: And the Tmax ([4]; male lean Sprague Dawley rats, n = 5 per group, plasma, LC-MS/MS)?
Answer: The Tmax was 4 h.

Question: And the “Calculated LDL” value ([5]; Calculated LDL = Cholesterol − (HDL + Triglycerides/5), serum after 22 days, mean ± SEM)?
Answer: The value was 15 ± 5 mg/dL.

Question: And the “Cholesterol vs. vehicle treated animals” value ([5]; after 22 days of treatment, result in words)?
Answer: Its value is “significantly reduced”.

Question: What about the Insulin [5, 8] of the same compound?
Answer: Its Insulin is 6.7 ± 1.0 ng/mL.

Question: And the Leptin [5, 8]?
Answer: Its Leptin is 39 ± 9.1 ng/mL.

Question: What about the Adiponectin ([5]; serum ELISA, diluted 1:500, after 22 days, mean ± SEM, n = 6 (Oxytocin n = 4)) of the same compound?
Answer: The Adiponectin was 62.4 ± 7.3 ng/mL.

Question: What about the ALT [5, 9] of the same compound?
Answer: Its ALT is 26 ± 2 U/L.

Question: What about the AST [5, 9] of the same compound?
Answer: Its AST is 73 ± 8 U/L.

Question: And the Cholesterol [5, 9]?
Answer: Its Cholesterol is 67 ± 6 ^b mg/dL.

Question: And the Glucose [5, 9]?
Answer: The Glucose was 237 ± 12 mg/dL.

Question: And the HDL [5, 9]?
Answer: Its HDL is 21 ± 2 mg/dL.

Question: And the Triglycerides [5, 9]?
Answer: Its Triglycerides is 182 ± 30 mg/dL.

Question: What about the half-life [6] of the same compound?
Answer: The half-life was 2.3 h.
